Assay in all cases: Example B1 herbicidal action, post-emergence, 96-cell seed trays, climatic chamber
What all share (type): in vivo

For assay [1], the system named is Amaranthus retroflexus (AMARE). As to conditions: Application post-emergence, 1000 mg/l spray equivalent to 1000 g/ha, evaluated after 9 days. As to the method:
(§1) Seeds of a variety of test species were sown in sterilised standard soil in seed trays each having 96 cells. After cultivation for 8 to 9 days cultivation (post-emergence) under controlled conditions in a climatic chamber (cultivation at 23/17° C., day/night; 13 hours light; 50-60% humidity), the plants were treated with an aqueous spray solution of 1000 mg/l of the active ingredient dissolved in 10% DMSO (dimethyl sulfoxide, CAS RN 67-68-5) as a solvent, equivalent to 1000 g/ha. The plants were grown in the climatic chamber after application at (24/19° C., day/night; 13 hours light; 50-60% humidity) and watered twice daily. After 9 days until the test was evaluated (100=total damage to plant, 0=no damage to plant)

A further assay relates to Stellaria media (STEME). As to conditions: Application post-emergence, 1000 mg/l spray equivalent to 1000 g/ha, evaluated after 9 days (100=total damage to plant, 0=no damage to plant). Here is the method: as §1
In another assay the test system is Solanum nigrum (SOLNI). To be noted: Application post-emergence, 1000 mg/l spray equivalent to 1000 g/ha, evaluated after 9 days (100=total damage to plant, 0=no damage to plant). As to the method:
as §1

Assay [2] concerns Nasturtium officinale (NAAOF). Set-up: scale not given here. To be noted: Application post-emergence, 1000 mg/l spray equivalent to 1000 g/ha, evaluated after 9 days (100=total damage to plant, 0=no damage to plant). As to the method:
as §1

From patent US8133847B2, “Pyrido[2,3-B]pyrazine derivatives useful as herbicidal compounds” (Syngenta Limited, priority 2006, dated 2012) come the findings set out here.

The structures appear in SMILES notation.

With `COCCn1c(=O)c(-c2c(F)ccc(F)c2Cl)c(OC(=O)C(C)C)c2nccnc21` [Compound C15], the “damage to plant, Amaranthus retroflexus (AMARE)” value (shortened to “damage to plant … (AMARE)”) in assay [1] stood at 0. Besides, the “damage to plant, Stellaria media (STEME)” value with Stellaria media (STEME) came out at 5. Also, the “damage to plant, Solanum nigrum (SOLNI)” value with Solanum nigrum (SOLNI) came out at 1. Further, the “damage to plant, Nasturtium officinale (NAAOF)” value (“damage to plant … (NAAOF)” below) in assay [2] stood at 6.

On to `CC(C)n1c(=O)c(-c2c(F)ccc(F)c2Cl)c(OC(=O)C(C)(C)C)c2nccnc21` [Compound C19], for which the “damage to plant … (AMARE)” value in assay [1] came to 0. The “damage to plant, Stellaria media (STEME)” value in the assay on Stellaria media (STEME) was found to be 6. In addition, the “damage to plant, Solanum nigrum (SOLNI)” value with Solanum nigrum (SOLNI) was 3. Also, the “damage to plant … (NAAOF)” value in assay [2] was determined as 4.

As to `CCn1c(=O)c(-c2c(F)ccc(F)c2Cl)c(OC(=O)C(C)(C)C)c2nccnc21` [Compound C21], the “damage to plant … (AMARE)” value in assay [1] came to 8. The “damage to plant, Stellaria media (STEME)” value with Stellaria media (STEME) is 8. For the same compound, the “damage to plant, Solanum nigrum (SOLNI)” value in the assay on Solanum nigrum (SOLNI) was determined as 0. In addition, the “damage to plant … (NAAOF)” value in assay [2] is given as 8.

Take `C=CCCn1c(=O)c(-c2ccccc2OC(F)(F)F)c(OC(C)=O)c2nccnc21` [Compound C22]: the “damage to plant … (AMARE)” value in assay [1] amounted to 1. The “damage to plant, Stellaria media (STEME)” value in the assay with Stellaria media (STEME) is on record as 5. Also, in the assay on Solanum nigrum (SOLNI), the “damage to plant, Solanum nigrum (SOLNI)” value is on record as 2. For the same compound, in assay [2], the “damage to plant … (NAAOF)” value amounted to 8.

As to `CC(C)n1c(=O)c(-c2ccccc2OC(F)(F)F)c(OC(=O)C(C)(C)C)c2nccnc21` [Compound C23], in assay [1], the “damage to plant … (AMARE)” value worked out at 0. The “damage to plant, Stellaria media (STEME)” value in the assay with Stellaria media (STEME) is 0. Moreover, the “damage to plant, Solanum nigrum (SOLNI)” value with Solanum nigrum (SOLNI) was found to be 4. In assay [2], the “damage to plant … (NAAOF)” value is recorded as 0.

In the case of `CC(=O)Oc1c(-c2ccccc2OC(F)(F)F)c(=O)n(Cc2ccccc2)c2nccnc12` [Compound C24], in assay [1], the “damage to plant … (AMARE)” value worked out at 0. In addition, the “damage to plant, Stellaria media (STEME)” value in the assay with Stellaria media (STEME) is listed as 3. Moreover, the “damage to plant, Solanum nigrum (SOLNI)” value with Solanum nigrum (SOLNI) is reported as 3. Besides, the “damage to plant … (NAAOF)” value in assay [2] was 4.

With `C=CCn1c(=O)c(-c2ccccc2OC(F)(F)F)c(OC(=O)C(C)(C)C)c2nccnc21` [Compound C25], the “damage to plant … (AMARE)” value in assay [1] was found to be 0. Besides, in the assay with Stellaria media (STEME), the “damage to plant, Stellaria media (STEME)” value is listed as 2. The “damage to plant, Solanum nigrum (SOLNI)” value in the assay with Solanum nigrum (SOLNI) is on record as 0. In assay [2], the “damage to plant … (NAAOF)” value amounted to 0.

As for `CCn1c(=O)c(-c2ccccc2OC(F)(F)F)c(OC(=O)C(C)(C)C)c2nccnc21` [Compound C26], in assay [1], the “damage to plant … (AMARE)” value is reported as 0. In addition, in the assay on Stellaria media (STEME), the “damage to plant, Stellaria media (STEME)” value came out at 2. Further, the “damage to plant, Solanum nigrum (SOLNI)” value in the assay on Solanum nigrum (SOLNI) was 0. In addition, the “damage to plant … (NAAOF)” value in assay [2] came out at 0.

For the compound `CCn1c(=O)c(-c2ccccc2OC(F)(F)F)c(OC(C)=O)c2nccnc21` [Compound C27], the “damage to plant … (AMARE)” value in assay [1] is on record as 7. Also, the “damage to plant, Stellaria media (STEME)” value in the assay with Stellaria media (STEME) is 5. In addition, the “damage to plant, Solanum nigrum (SOLNI)” value in the assay with Solanum nigrum (SOLNI) was 6. Also, in assay [2], the “damage to plant … (NAAOF)” value was 7.

For `CCC(=O)Oc1c(-c2ccccc2OC(F)(F)F)c(=O)n(C)c2nccnc12` [Compound C28], the “damage to plant … (AMARE)” value in assay [1] was found to be 2. The “damage to plant, Stellaria media (STEME)” value in the assay on Stellaria media (STEME) is 7. The “damage to plant, Solanum nigrum (SOLNI)” value in the assay with Solanum nigrum (SOLNI) is recorded as 2. The “damage to plant … (NAAOF)” value in assay [2] was 7.

On to `Cn1c(=O)c(-c2ccccc2OC(F)(F)F)c(OC(=O)C(C)(C)C)c2nccnc21` [Compound C29], for which the “damage to plant … (AMARE)” value in assay [1] is listed as 0. The “damage to plant, Stellaria media (STEME)” value with Stellaria media (STEME) is 0. For the same compound, the “damage to plant, Solanum nigrum (SOLNI)” value in the assay on Solanum nigrum (SOLNI) was determined as 4. For the same compound, the “damage to plant … (NAAOF)” value in assay [2] amounted to 2.

Turning to `C=CCn1c(=O)c(-c2c(Cl)cccc2Cl)c(OC(=O)CC)c2nccnc21` [Compound C30], the “damage to plant … (AMARE)” value in assay [1] is recorded as 8. For the same compound, in the assay on Stellaria media (STEME), the “damage to plant, Stellaria media (STEME)” value was 8. In addition, the “damage to plant, Solanum nigrum (SOLNI)” value with Solanum nigrum (SOLNI) is 4. Also, the “damage to plant … (NAAOF)” value in assay [2] is recorded as 8.
